In brackets after ≈: the same amount, converted by molar mass.
What was measured:
Format in all cases: cell-based
[1] = tested on: Mycoplasma pneumoniae ATCC 29343; assay: Antibacterial effect against specific bacteria (MIC); conditions: ATCC29343, same manner as Experimental Example 1
Description: (§1) The in vitro antibacterial activity (minimum inhibitory concentration, MIC, µg/ml) of the test compounds was determined according to Japan Society of Chemotherapy Standard [Chemotherapy, vol. 29, pp 76-79 (1981)].
(§2) In the same manner as in Experimental Example 1, the antibacterial effect against specific bacteria such as Chlamydia, Mycoplasma and acid-fast bacteria and anaerobic bacteria was determined.

[2] = tested on: Mycobacterium smegmatis IFO 3153; assay: as above; conditions: Mycolicibacterium smegmatis, IFO3153; same manner as Experimental Example 1
Description: as §1, §2

[3] = tested on: Chlamydia trachomatis D/UW-3Cx; assay: as above; conditions: same manner as Experimental Example 1
Description: as §1, §2

[4] = tested on: Mycobacterium smegmatis IFO 13167; assay: as above; conditions: Mycolicibacterium smegmatis, IFO13167; same manner as Experimental Example 1
Description: as §1, §2

[5] = tested on: Ureaplasma urealyticum ATCC 27618; assay: as above; conditions: ATCC27618, same manner as Experimental Example 1
Description: as §1, §2

B. fragilis BFY-18 = assay: as above; conditions: Bacteroides fragilis, BFY18; same manner as Experimental Example 1
Description: as §1, §2

[6] = tested on: Bacteroides fragilis GAI 5560; assay: as above; conditions: GAI5560, same manner as Experimental Example 1
Description: as §1, §2

S. aureus MRSA Y-238 = assay: MIC of the infectious bacteria used for experimental infection; conditions: Staphylococcus aureus, infectious strain of the mouse protection test
Description: as §1
(§3) Experimental infection was caused by intraperitoneal inoculation of respective bacteria to male mice. One hour after the inoculation, a test compound was orally administered to the mice. The therapeutic effect of each test compound was evaluated by reference to the 50% effective dose (ED₅₀) which was based on the survival ratio at 7 days after the administration according to the probit method [Proc. Soc. Exp. Med., Vol. 57, p 261-264 (1944)]. The minimum inhibitory concentration (MIC) of the infectious bacteria used was also determined. […]

E. coli KC-14 = assay: as above; conditions: Escherichia coli, KC14; infectious strain of the mouse protection test
Description: as §1, §3

S. aureus Smith = assay: as above; conditions: Staphylococcus aureus; infectious strain of the mouse protection test
Description: as §1, §3

SMILES: CC1COc2c(N3CCN(C)CC3)c(F)cc3c(=O)c(C(=O)O)cn1c23 (stereo not shown) [Comp. Ex. 2, 9-fluoro-2,3-dihydro-3-methyl-10-(4-methyl-1-piperazinyl)-7-oxo-7H-pyrido [1. 2. 3-de) [1.4] benzoxazine-6-carboxylic acid, reference compound]
- MIC [1]: 1.56 µg/mL (≈ 4.32 µM)
- MIC [2]: 0.39 µg/mL (≈ 1.08 µM)
- MIC [3]: 0.39 µg/mL (≈ 1.08 µM)
- MIC [4]: 0.39 µg/mL (≈ 1.08 µM)
- MIC [5]: 3.13 µg/mL (≈ 8.66 µM)
- MIC (B. fragilis BFY-18): 1.56 µg/mL (≈ 4.32 µM)
- MIC [6]: 1.56 µg/mL (≈ 4.32 µM)
- MIC (S. aureus MRSA Y-238): > 100 µg/mL
- MIC (E. coli KC-14): 0.05 µg/mL
- MIC (S. aureus Smith): 0.05 µg/mL

Source: EP0677522A1, “8-METHOXYQUINOLONECARBOXYLIC ACID DERIVATIVE” (priority 1992, dated 1994)
